Test results taken from paper PMC10117725, “From an Hsp90 - binding protein to a peptide drug” (microLife, 2022).

Key:
[1] = test system: S. aureus USA300 internalization by HaCaT cells; assay: S. aureus USA300 invasion (internalization) into HaCaT keratinocytes; format: cell-based, human
Description: The invasion protocol was adapted from our previous papers (Nguyen et al. [2015], Tribelli et al. [2020]). About 5 × 10^5 Keratinocytes were seeded in a 24 well plate (Greiner, Frickenhausen, Germany) to attain a monolayer of ∼10^6 cells/well. Staphylococcusaureus was grown overnight at 37°C, centrifuged and suspended in invasion medium (DMEM with 10% FBS for HaCaT and K-SFM for NTERT-1 cells). The adherent keratinocytes were […], or 5 µM geldanamycin (Sigma-Aldrich, Germany) or monoclonal antibodies specific against Hsp90α (α‐Hsp90α, Abcam) for 1 h. After 1 h, 100 µl of bacterial suspension was added to each well to attain a MOI (multiplicity of infection) of 30 and incubated with cells for 1.5 h. Subsequently, the extracellular bacteria were killed with treatment of 2.5 μg/ml lysostaphin (Sigma-Aldrich, Germany) for 1.5 h. The cells were then washed, lysed, mechanically detached by scraping, diluted, and enumerated on TSA (Tryptic Soy Agar) plates to quantify the intracellular bacteria.

[2] = test system: F-actin levels in HaCaT cells; assay: F-actin measurement (ActinGreen 488 fluorescence) in HaCaT cells; format: cell-based, human; conditions: 35 µg/ml peptide (L15 20 µM, L13 30 µM), geldanamycin 5 µM; 1.5 h; ActinGreen 488 fluorescence relative to control
Description: (§1) About 5 × 10^4 cells were seeded in black flat bottom 96 well cell culture microplate (Greiner, Germany) and incubated overnight. The cells were then incubated with peptides or geldanamycin for 1.5 h. After incubation, the cells were washed, permeabilised with 0.1% (v/v) Triton X-100 and stained with ActinGreen™ 488 ReadyProbes® (Thermo Fischer, Germany) for 30 min. After the staining, the cells were washed and measure for its fluorescence at Excitation/Emission: 495/518 nm (Luqman et al. [2020]).

[3] = test system: F-actin levels in N/TERT-1 cells; assay: F-actin measurement (ActinGreen 488 fluorescence) in N/TERT-1 cells; format: cell-based, human; conditions: L15 20 µM, L13 30 µM, geldanamycin 5 µM; 1.5 h; relative to control
Description: as §1

HaCaT cells = assay: MTT cytotoxicity in HaCaT cells; format: cell-based, human; conditions: MTT, 24 h, 1–200 µM
Description: (§2) MTT (3-(4,5-dimethylthiazol-2-yl)-2,5-diphenyl tetrazolium bromide) assay was employed to analyze the cytotoxicity of peptides and geldanamycin to the cells. 5 × 10^5 cells were seeded in a 96 flat bottom well plate and incubated for 2.5 or 24 h at 37°C with 5% CO2. The cells were then treated with increasing concentration (0 to 200 µM) of peptides or geldanamycin for 24 h. After the incubation, 10 μl of the MTT labelling reagent is added to each well to attain a final concentration 0.5 mg/ml, followed by 4 h incubation. Metabolically active cells convert the yellow tetrazolium salt to purple formazan crystals, which were solubilized using the solubilization solution (DMSO) and measured for absorbance at λmax/λref–570/690 nm (Saising et al. [2018]).

MONO-MAC-6 (MM6) cells = assay: MTT cytotoxicity in MM6 cells; format: cell-based, human; conditions: 24 h, 1–200 µM
Description: as §2

S. aureus Newman = assay: Galleria mellonella larvae infection model, S. aureus Newman; format: in vivo
Description: (§3) Galleria mellonella larvae, purchased from Feeders & more GmbH, Germany, were sorted based on weight and used within one week. Ten larvae per group with weight average of 500 mg/larvae were injected with bacteria and/or peptides on its last proleg using a BD insulin syringe. The dosage used for the experiment were 60 mg/kg for peptides, 5 mg/kg of geldanamycin and 20 mg/kg for vancomycin. Each larva was injected with 10 µl of L15 (last left proleg) 1 h before administration of 10^6 cfu S. aureus (last right proleg). The larvae were maintained at 37°C and observed for mortality every day over the course of 5 days.

[4] = test system: Galleria mellonella larvae; assay: Toxicity of tested doses to Galleria mellonella larvae
Description: as §3

[5] = test system: phagocytosis by primary human CD14+ monocytes; assay: Phagocytosis of S. aureus USA300 by CD14+ monocytes; format: cell-based; conditions: L15 20 µM, L13 30 µM, geldanamycin 5 µM, 60 min preincubation; MOI 30, 90 min; n = 4 donors; SEM
Description: Peripheral Blood Mononuclear cells (PBMCs) were isolated by density gradient centrifugation following the previous study (Nguyen et al. [2022]). From the pool of PBMCs, monocytes were isolated by positive selection with anti-human CD14 microbeads (Miltenyi Biotech, Bergisch-Gladbach, Germany) following a previously reported protocol (Nguyen et al. [2022]). The purity was analysed by flow cytometry on a BD Accuri C6 (BD Biosciences, Heidelberg, Germany) with anti-human CD14-FITC, CD45-PE and propidium iodide (BD Biosciences, Heidelberg, Germany) and ranged from 85% to 98%.
For the phagocytosis, 10^6 CD14^+ monocytes were seeded in 1 ml of medium (RPMI supplemented with L-Glutamine and 10% FCS) in a 12 well plate (Greiner, Germany). The cells were incubated with 20 µM of L15, 30 µM of L13, or 5 µM of Geldanamycin for 60 min at 37°C and 5% CO2 before addition of bacteria. For the phagocytosis assay, bacterial cells were resuspended in 100 µl RPMI medium at MOI of 30 and incubated with monocytes for 90 min. The cells were washed once with PBS and 0.5 ml of medium supplemented with 2.5 µg/ml of Lysostaphin was added for 90 min to remove the extracellular bacteria. Then, monocytes were washed twice with PBS and resuspended in 0.5 ml of milliQ dH2O. The cells were scraped, and the lysed solution was transferred into a new 1.5 ml Eppendorf tube for a 5 min sonication (frequency 80, power 100) at room temperature to prevent the bacterial cell clumping by using ultrasonic water bath Elmasonic P (Elma Schmidbauer Gmb, Singen, Germany). About 10 µl fractions of undiluted, 10^−1, 10^−2, and 10^−3 dilutions were inoculated on tryptic soy agar (TSA) plates and incubated overnight at 37°C. The numbers of internalized bacteria were determined based on the manual counting of bacterial colony forming units (cfu) recovered on the agar plates.

[6] = test system: S. aureus USA300 infected PBMCs; assay: Cytokine release of S. aureus USA300 infected PBMCs (ELISA); format: cell-based, human; conditions: L15 20 µM, L13 30 µM, geldanamycin 5 µM, 20 h, vs unstimulated infected PBMCs
[7] = test system: S. aureus USA300 invasion into N/TERT-1 cells; assay: S. aureus USA300 invasion into N/TERT-1 keratinocytes; format: cell-based, human; conditions: pretreatment with L15 20 µM, L13 30 µM, geldanamycin 5 µM or α-Hsp90α antibody
Description: The invasion protocol was adapted from our previous papers (Nguyen et al. [2015], Tribelli et al. [2020]). About 5 × 10^5 Keratinocytes were seeded in a 24 well plate (Greiner, Frickenhausen, Germany) to attain a monolayer of ∼10^6 cells/well. Staphylococcusaureus was grown overnight at 37°C, centrifuged and suspended in invasion medium (DMEM with 10% FBS for HaCaT and K-SFM for NTERT-1 cells). The adherent keratinocytes were washed with PBS and supplemented with invasion medium followed by treatment with 20 µM of L15, 30 µM of L13, or 5 µM geldanamycin (Sigma-Aldrich, Germany) or monoclonal antibodies specific against Hsp90α (α‐Hsp90α, Abcam) for 1 h. After 1 h, 100 µl of bacterial suspension was added to each well to attain a MOI (multiplicity of infection) of 30 and incubated with cells for 1.5 h. Subsequently, the extracellular bacteria were killed with treatment of 2.5 μg/ml lysostaphin (Sigma-Aldrich, Germany) for 1.5 h. The cells were then washed, lysed, mechanically detached by scraping, diluted, and enumerated on TSA (Tryptic Soy Agar) plates to quantify the intracellular bacteria.

Hsp90α = target: T1, Hsp90α (Homo sapiens, UniProt P07900); format: binding; conditions: dot blot, 2 µg blotted on membrane, 20 µg recombinant Hsp90α at 4°C overnight, α-Hsp90α immunodetection
T1 construct: purchased Abcam
Description: Two µg of each peptide was blotted (dot blot) directly on PDV nitrocellulose membrane and blocked with ROTI®Block (Carl Roth, Germany). After washing, the membrane was then incubated with 20 μg of recombinant Hsp90α (Abcam)/Lpl1-his protein at 4°C overnight. In case of interaction studies with Hsp90α, α-Hsp90α (produced in mouse, Abcam) was used as the primary antibody and for interaction studies with Lpl1-his, Anti-6X His tag antibody (also produced in mouse, Sigma-Aldrich, Germany) was used. Alkaline phosphatase conjugated goat-α-mouse IgG (Sigma-Aldrich, Germany) served as the secondary antibody. Detection was done using BCIP®/NBT solution (Sigma, Germany). Lpl1-his was isolated and purified as described in our previous paper (Tribelli et al. [2020]).

**Q.** Which results are given for COC1=C2C[C@@H](C)C[C@H](OC)[C@H](O)[C@@H](C)/C=C(\C)[C@H](OC(N)=O)[C@@H](OC)/C=C\C=C(/C)C(=O)NC(=CC1=O)C2=O [Geldanamycin, geldanamycin, reference compound]?
**A.** decrease in uptake/invasion of S. aureus USA300 by HaCaT cells compared to untreated control ([1]; preincubation with L15 20 µM, L13 30 µM, geldanamycin 5 µM or α-Hsp90α antibody, MOI 30): approximately 75%; Relative F-actin level in HaCaT [2]: 0.88 ± 0.03; relative F-actin content in N/TERT-1 cells [3]: 0.82 ± 0.03; concentration from which viability decreased gradually, HaCaT (HaCaT cells): ≥ 50 µM; concentration from which viability decreased, MM6 (MONO-MAC-6 (MM6) cells): ≥ 10 µM; effect on survival of infected larvae (S. aureus Newman; geldanamycin 5 mg/kg 1 h before infection, strain not restated in the sentence): no or rather a negative effect on survival; toxicity of tested doses to larvae ([4]; in vivo): not toxic to larvae; decrease of phagocytosis of S. aureus into CD14+ monocytes [5]: no significant impact; TNF-alpha production of infected PBMCs ([6]; n = 4): inhibited; IL-6 production of infected PBMCs ([6]; n = 5): inhibited; invasion of S. aureus USA300 into N/TERT-1 cells [7]: reduced USA300 invasion

**Q.** Which “Interaction with Hsp90α” value (Hsp90α) does the source give for GKGNETKED [L1, Lpl1-derived peptide] here?
**A.** No

**Q.** What about the “Relative F-actin level in HaCaT” value [2] of the same compound?
**A.** 0.95 ± 0.49

**Q.** How did the “increase of invasion into HaCaT” value ([1]; positive control peptides, S. aureus USA300) turn out when “DEIVKELRSRYNISTEKSPILKMHIDGDLKGSSVGYRKLEI DFSKRENSKLSVIEFLSYKPAKK [L26, Lpl1-derived peptide that increased S. aureus internalization]” was run?
**A.** approximately 1.5 fold

**Q.** What about the “Interaction with Hsp90α” value (Hsp90α) of the same compound?
**A.** Yes

**Q.** And the “Relative F-actin level in HaCaT” value [2]?
**A.** 1.25 ± 0.13

**Q.** With CN[C@H](CC(C)C)C(=O)N[C@H]1C(=O)N[C@@H](CC(N)=O)C(=O)N[C@H]2C(=O)N[C@H]3C(=O)N[C@H](C(=O)N[C@H](C(=O)O)c4cc(O)cc(O)c4-c4cc3ccc4O)[C@H](O)c3ccc(c(Cl)c3)Oc3cc2cc(c3O[C@@H]2O[C@H](CO)[C@@H](O)[C@H](O)[C@H]2O[C@H]2C[C@](C)(N)[C@H](O)[C@H](C)O2)Oc2ccc(cc2Cl)[C@H]1O [vancomycin, reference compound] as the compound, how does the “larvae surviving on day 5, S. aureus Newman” value (S. aureus Newman; peptides 60 mg/kg, vancomycin 20 mg/kg, injected 1 h before 10^6 cfu, 37°C) read?
**A.** 100%

**Q.** What about the “toxicity of tested doses to larvae” value ([4]; peptides 60 mg/kg, geldanamycin 5 mg/kg, vancomycin 20 mg/kg) of the same compound?
**A.** not toxic to larvae

**Q.** Which results are given for NKPGEL [L8, Lpl1-derived peptide]?
**A.** Interaction with Hsp90α (Hsp90α): No; Relative F-actin level in HaCaT [2]: 0.96 ± 0.05

**Q.** EMKNNKIIL [L17, Lpl1-derived peptide] was tested. Which “Interaction with Hsp90α” value (Hsp90α) did it give?
**A.** No

**Q.** And the “Relative F-actin level in HaCaT” value [2]?
**A.** 1.09 ± 0.20
